Test system: mouse neuroblastoma N2a cells
Test: Rescue of Aβ42-induced neurotoxicity in N2a cells
Type: cell-based
Details: N2a cells treated with Aβ42 and compound

In the case of COc1cc(/C=C/C(=O)CC(=O)/C=C/c2ccc(O)c(OC)c2)ccc1O [curcumin], the “effect on Aβ42-induced neurotoxicity” value is reported as “dramatically increased the Aβ-induced cytotoxicity”.

Reference: PMC11445708 (Dalton transactions (Cambridge, England : 2003), 2024)
